{
  "source": "BigSolDB 2.1",
  "data": [
    {"smiles": "CCS(=O)(=O)c1cccnc1S(=O)(=O)NC(=O)Nc1nc(OC)cc(OC)n1", "values": [
      {"measurement": "solubility (mole fraction)", "setting": "in DMF, 278.15 K", "value": "5.64e-05"},
      {"measurement": "solubility (mole fraction)", "setting": "in DMF, 283.15 K", "value": "7.09e-05"},
      {"measurement": "solubility (mole fraction)", "setting": "in DMF, 288.15 K", "value": "8.7e-05"},
      {"measurement": "solubility (mole fraction)", "setting": "in DMF, 293.15 K", "value": 0.000106},
      {"measurement": "solubility (mole fraction)", "setting": "in DMF, 298.15 K", "value": 0.000125},
      {"measurement": "solubility (mole fraction)", "setting": "in DMF, 303.15 K", "value": 0.000148},
      {"measurement": "solubility (mole fraction)", "setting": "in DMF, 308.15 K", "value": 0.000172},
      {"measurement": "solubility (mole fraction)", "setting": "in DMF, 313.15 K", "value": 0.000199},
      {"measurement": "solubility (mole fraction)", "setting": "in DMF, 318.15 K", "value": 0.000228},
      {"measurement": "solubility (mole fraction)", "setting": "in DMF, 323.15 K", "value": 0.000262},
      {"measurement": "solubility (mole fraction)", "setting": "in ethanol, 278.15 K", "value": "1.91e-05"},
      {"measurement": "solubility (mole fraction)", "setting": "in ethanol, 283.15 K", "value": "2.32e-05"},
      {"measurement": "solubility (mole fraction)", "setting": "in ethanol, 288.15 K", "value": "2.82e-05"},
      {"measurement": "solubility (mole fraction)", "setting": "in ethanol, 293.15 K", "value": "3.4e-05"},
      {"measurement": "solubility (mole fraction)", "setting": "in ethanol, 298.15 K", "value": "4.03e-05"},
      {"measurement": "solubility (mole fraction)", "setting": "in ethanol, 303.15 K", "value": "4.76e-05"},
      {"measurement": "solubility (mole fraction)", "setting": "in ethanol, 308.15 K", "value": "5.52e-05"},
      {"measurement": "solubility (mole fraction)", "setting": "in ethanol, 313.15 K", "value": "6.36e-05"},
      {"measurement": "solubility (mole fraction)", "setting": "in ethanol, 318.15 K", "value": "7.34e-05"},
      {"measurement": "solubility (mole fraction)", "setting": "in ethanol, 323.15 K", "value": "8.5e-05"},
      {"measurement": "solubility (mole fraction)", "setting": "in ethylene glycol, 278.15 K", "value": "7.03e-06"},
      {"measurement": "solubility (mole fraction)", "setting": "in ethylene glycol, 283.15 K", "value": "8.83e-06"},
      {"measurement": "solubility (mole fraction)", "setting": "in ethylene glycol, 288.15 K", "value": "1.07e-05"},
      {"measurement": "solubility (mole fraction)", "setting": "in ethylene glycol, 293.15 K", "value": "1.28e-05"},
      {"measurement": "solubility (mole fraction)", "setting": "in ethylene glycol, 298.15 K", "value": "1.53e-05"},
      {"measurement": "solubility (mole fraction)", "setting": "in ethylene glycol, 303.15 K", "value": "1.79e-05"},
      {"measurement": "solubility (mole fraction)", "setting": "in ethylene glycol, 308.15 K", "value": "2.08e-05"},
      {"measurement": "solubility (mole fraction)", "setting": "in ethylene glycol, 313.15 K", "value": "2.38e-05"},
      {"measurement": "solubility (mole fraction)", "setting": "in ethylene glycol, 318.15 K", "value": "2.76e-05"},
      {"measurement": "solubility (mole fraction)", "setting": "in ethylene glycol, 323.15 K", "value": "3.19e-05"},
      {"measurement": "solubility (mole fraction)", "setting": "in methanol, 278.15 K", "value": "2.17e-05"},
      {"measurement": "solubility (mole fraction)", "setting": "in methanol, 283.15 K", "value": "2.67e-05"},
      {"measurement": "solubility (mole fraction)", "setting": "in methanol, 288.15 K", "value": "3.26e-05"},
      {"measurement": "solubility (mole fraction)", "setting": "in methanol, 293.15 K", "value": "3.96e-05"},
      {"measurement": "solubility (mole fraction)", "setting": "in methanol, 298.15 K", "value": "4.7e-05"},
      {"measurement": "solubility (mole fraction)", "setting": "in methanol, 303.15 K", "value": "5.5e-05"},
      {"measurement": "solubility (mole fraction)", "setting": "in methanol, 308.15 K", "value": "6.37e-05"},
      {"measurement": "solubility (mole fraction)", "setting": "in methanol, 313.15 K", "value": "7.48e-05"},
      {"measurement": "solubility (mole fraction)", "setting": "in methanol, 318.15 K", "value": "8.56e-05"},
      {"measurement": "solubility (mole fraction)", "setting": "in methanol, 323.15 K", "value": "9.85e-05"},
      {"measurement": "solubility (mole fraction)", "setting": "in water, 278.15 K", "value": "2.28e-07"},
      {"measurement": "solubility (mole fraction)", "setting": "in water, 283.15 K", "value": "2.82e-07"},
      {"measurement": "solubility (mole fraction)", "setting": "in water, 288.15 K", "value": "3.44e-07"},
      {"measurement": "solubility (mole fraction)", "setting": "in water, 293.15 K", "value": "4.13e-07"},
      {"measurement": "solubility (mole fraction)", "setting": "in water, 298.15 K", "value": "4.88e-07"},
      {"measurement": "solubility (mole fraction)", "setting": "in water, 303.15 K", "value": "5.76e-07"},
      {"measurement": "solubility (mole fraction)", "setting": "in water, 308.15 K", "value": "6.77e-07"},
      {"measurement": "solubility (mole fraction)", "setting": "in water, 313.15 K", "value": "7.75e-07"},
      {"measurement": "solubility (mole fraction)", "setting": "in water, 318.15 K", "value": "8.96e-07"},
      {"measurement": "solubility (mole fraction)", "setting": "in water, 323.15 K", "value": "1.02e-06"}
    ]}
  ]
}
